Data: ChEMBL document CHEMBL1201862, “PubChem BioAssay data set” (2004)
Activity calls are given as the source filed them.

What was measured:
[1] = target: T1, Corticotropin-releasing factor receptor 2/Corticotropin-releasing factor-binding protein (Homo sapiens, UniProt P24387+Q13324); test: activators of CRF receptor 2 with binding protein – uHTS hits, confirmation (AID 602473); format: functional; settings: read-out: EC50_Mean
T1 sequence (Q13324 whole entry): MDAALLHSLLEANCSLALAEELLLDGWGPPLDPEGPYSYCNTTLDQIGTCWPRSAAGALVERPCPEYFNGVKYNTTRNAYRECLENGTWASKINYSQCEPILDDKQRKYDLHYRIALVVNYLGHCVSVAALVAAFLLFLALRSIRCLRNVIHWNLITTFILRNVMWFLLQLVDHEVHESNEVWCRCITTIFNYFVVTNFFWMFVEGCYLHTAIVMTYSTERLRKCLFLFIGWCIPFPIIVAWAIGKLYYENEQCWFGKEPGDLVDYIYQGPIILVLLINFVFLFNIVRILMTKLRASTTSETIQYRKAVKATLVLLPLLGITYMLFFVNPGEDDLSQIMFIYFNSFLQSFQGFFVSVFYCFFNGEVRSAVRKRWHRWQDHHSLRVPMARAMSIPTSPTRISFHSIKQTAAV
T1 sequence (P24387 whole entry): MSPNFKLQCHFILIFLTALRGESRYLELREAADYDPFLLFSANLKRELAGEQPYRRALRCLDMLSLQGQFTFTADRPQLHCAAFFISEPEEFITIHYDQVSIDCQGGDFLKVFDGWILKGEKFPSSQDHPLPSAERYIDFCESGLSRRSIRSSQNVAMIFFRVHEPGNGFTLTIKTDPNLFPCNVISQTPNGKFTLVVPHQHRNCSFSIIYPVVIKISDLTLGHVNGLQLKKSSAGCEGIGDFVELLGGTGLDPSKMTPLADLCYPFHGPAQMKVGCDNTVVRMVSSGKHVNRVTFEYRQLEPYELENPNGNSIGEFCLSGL

[2] = target: T2, Replicative DNA helicase DnaB (Mycobacterium tuberculosis, UniProt P9WMR3); test: DnaB intein splicing inhibitors, dose response, biochemical, cell-free fluorescence (AID 449749); format: functional
T2 sequence (P9WMR3 whole entry): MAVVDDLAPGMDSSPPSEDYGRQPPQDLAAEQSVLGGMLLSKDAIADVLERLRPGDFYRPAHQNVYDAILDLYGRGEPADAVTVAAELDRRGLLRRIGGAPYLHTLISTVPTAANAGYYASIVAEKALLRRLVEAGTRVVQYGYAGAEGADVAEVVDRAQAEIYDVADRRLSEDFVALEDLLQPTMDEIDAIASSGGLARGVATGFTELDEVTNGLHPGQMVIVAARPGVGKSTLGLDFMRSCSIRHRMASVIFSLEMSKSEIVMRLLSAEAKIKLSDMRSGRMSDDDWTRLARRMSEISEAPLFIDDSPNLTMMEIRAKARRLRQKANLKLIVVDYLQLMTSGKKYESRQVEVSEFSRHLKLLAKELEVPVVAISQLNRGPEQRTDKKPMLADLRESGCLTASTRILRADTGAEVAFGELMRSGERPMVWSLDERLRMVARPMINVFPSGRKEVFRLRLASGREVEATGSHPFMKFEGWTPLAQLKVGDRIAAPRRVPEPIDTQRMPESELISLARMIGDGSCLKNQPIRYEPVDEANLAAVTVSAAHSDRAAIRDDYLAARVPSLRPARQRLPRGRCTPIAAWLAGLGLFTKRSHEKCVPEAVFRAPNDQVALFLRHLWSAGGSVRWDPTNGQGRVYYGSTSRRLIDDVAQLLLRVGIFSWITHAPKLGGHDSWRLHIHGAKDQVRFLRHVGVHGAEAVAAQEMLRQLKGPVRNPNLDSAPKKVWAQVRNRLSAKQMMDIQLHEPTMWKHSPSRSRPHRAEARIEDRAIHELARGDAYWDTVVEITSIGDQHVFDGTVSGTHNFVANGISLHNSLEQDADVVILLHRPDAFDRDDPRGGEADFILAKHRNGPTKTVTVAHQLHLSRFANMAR

Protein RecA = target: T3, Protein RecA (Mycobacterium tuberculosis, UniProt P9WHJ3); test: Fluorescence Cell-Free Homogeneous Dose Retest to Identify Inhibitors of RecA-Intein Splicing Activity. [Related pubchem assays (depositor defined):AID2097, AID2223, AID489010, AID492950]; format: functional
T3 sequence (P9WHJ3 whole entry): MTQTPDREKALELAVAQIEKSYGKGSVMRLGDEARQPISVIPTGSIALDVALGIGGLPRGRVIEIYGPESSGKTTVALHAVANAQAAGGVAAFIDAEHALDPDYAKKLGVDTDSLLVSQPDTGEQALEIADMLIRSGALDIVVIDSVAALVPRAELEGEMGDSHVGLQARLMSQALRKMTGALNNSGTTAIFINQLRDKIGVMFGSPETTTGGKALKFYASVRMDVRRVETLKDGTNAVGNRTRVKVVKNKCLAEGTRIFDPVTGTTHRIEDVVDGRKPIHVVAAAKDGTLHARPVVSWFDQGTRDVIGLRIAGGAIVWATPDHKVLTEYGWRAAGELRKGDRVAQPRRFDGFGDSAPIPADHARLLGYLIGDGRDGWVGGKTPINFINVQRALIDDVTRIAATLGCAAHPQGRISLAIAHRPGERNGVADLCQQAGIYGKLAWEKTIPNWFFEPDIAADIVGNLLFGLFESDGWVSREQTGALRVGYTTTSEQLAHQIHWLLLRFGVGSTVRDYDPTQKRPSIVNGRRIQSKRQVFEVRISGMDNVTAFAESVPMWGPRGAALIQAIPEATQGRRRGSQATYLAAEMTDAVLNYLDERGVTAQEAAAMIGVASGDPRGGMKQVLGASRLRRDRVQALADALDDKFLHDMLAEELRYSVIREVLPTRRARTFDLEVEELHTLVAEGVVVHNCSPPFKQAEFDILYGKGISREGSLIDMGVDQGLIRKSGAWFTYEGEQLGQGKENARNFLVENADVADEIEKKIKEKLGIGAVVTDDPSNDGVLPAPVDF

[3] = viability of uninfected HEp-2 cells – cell-based, HTS, cytotoxicity control for RSV inhibitor project, dose response (AID 2410); format: functional; settings: human respiratory syncytial virus
Streptokinase A = target: T4, Streptokinase A (Streptococcus pyogenes serotype M1, UniProt P10520); test: viability-normalized secreted streptokinase activity reduction – plasminogen activation absorbance, OD405, dose response (AID 1914); format: functional, Streptococcus pyogenes M1 GAS;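 further: secreted streptokinase activity via plasminogen activation per viability signal from cell pellet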
T4 sequence (P10520 whole entry): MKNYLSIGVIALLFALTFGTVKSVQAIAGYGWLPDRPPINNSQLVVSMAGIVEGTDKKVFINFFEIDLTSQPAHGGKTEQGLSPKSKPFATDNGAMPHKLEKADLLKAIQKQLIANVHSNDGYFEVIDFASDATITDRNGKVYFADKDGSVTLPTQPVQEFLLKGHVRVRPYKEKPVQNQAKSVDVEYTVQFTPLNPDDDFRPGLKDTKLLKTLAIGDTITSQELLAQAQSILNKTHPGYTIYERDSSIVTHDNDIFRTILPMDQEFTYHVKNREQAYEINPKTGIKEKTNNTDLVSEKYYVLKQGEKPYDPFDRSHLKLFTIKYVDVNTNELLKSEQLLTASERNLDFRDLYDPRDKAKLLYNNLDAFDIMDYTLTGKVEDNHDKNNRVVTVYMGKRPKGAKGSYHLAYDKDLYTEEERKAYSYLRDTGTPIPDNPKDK

[4] = tested on: Streptococcus sp. 'group A'; test: Streptococcus pyogenes SK(-)GAS viability under kanamycin – luminescence, BacTiterGlo, confirmation, counter-screen for streptokinase expression inhibitor project, dose response (AID 1900); format: functional, organism-based
Streptococcus = test: GAS UMAA2166 growth inhibition – luminescence, BacTiterGlo, counter-screen for streptokinase expression inhibitor project, dose response (AID 1915); format: functional, organism-based;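 further: potency for reduction of bacterial viability or growth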
Cytochrome P450 2C9 = Cytochrome P450 2C9 (Homo sapiens, UniProt P11712)
Cytochrome P450 2C9, sequence (P11712 whole entry): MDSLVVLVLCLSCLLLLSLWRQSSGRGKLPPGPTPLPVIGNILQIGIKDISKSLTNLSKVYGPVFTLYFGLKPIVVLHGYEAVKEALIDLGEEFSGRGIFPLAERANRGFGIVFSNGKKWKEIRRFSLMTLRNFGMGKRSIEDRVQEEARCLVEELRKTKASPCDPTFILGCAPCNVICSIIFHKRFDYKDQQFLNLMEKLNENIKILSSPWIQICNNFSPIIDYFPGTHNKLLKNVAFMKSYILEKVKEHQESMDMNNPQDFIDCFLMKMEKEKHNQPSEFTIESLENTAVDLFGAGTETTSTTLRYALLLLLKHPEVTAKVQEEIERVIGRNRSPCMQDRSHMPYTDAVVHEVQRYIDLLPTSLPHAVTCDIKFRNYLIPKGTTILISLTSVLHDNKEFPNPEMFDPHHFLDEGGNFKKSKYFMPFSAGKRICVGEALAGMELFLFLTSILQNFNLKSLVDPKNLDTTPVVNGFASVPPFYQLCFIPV

[5] = target: T5, Heat shock factor protein 1 (Mus musculus, UniProt P38532); test: enhancement of HSF1-driven luciferase signal – cell-based, NIH3T3, luminescence, dose retest, confirmation (AID 435004); format: functional;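 further: stress induced by proteasome inhibitor MG132 added 30 min after compound; luciferase reporter driven by HSF1 response element in NIH3T3 cells; actives raise luminescence as potentiators of the MG132 stress response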
T5 sequence (P38532 whole entry): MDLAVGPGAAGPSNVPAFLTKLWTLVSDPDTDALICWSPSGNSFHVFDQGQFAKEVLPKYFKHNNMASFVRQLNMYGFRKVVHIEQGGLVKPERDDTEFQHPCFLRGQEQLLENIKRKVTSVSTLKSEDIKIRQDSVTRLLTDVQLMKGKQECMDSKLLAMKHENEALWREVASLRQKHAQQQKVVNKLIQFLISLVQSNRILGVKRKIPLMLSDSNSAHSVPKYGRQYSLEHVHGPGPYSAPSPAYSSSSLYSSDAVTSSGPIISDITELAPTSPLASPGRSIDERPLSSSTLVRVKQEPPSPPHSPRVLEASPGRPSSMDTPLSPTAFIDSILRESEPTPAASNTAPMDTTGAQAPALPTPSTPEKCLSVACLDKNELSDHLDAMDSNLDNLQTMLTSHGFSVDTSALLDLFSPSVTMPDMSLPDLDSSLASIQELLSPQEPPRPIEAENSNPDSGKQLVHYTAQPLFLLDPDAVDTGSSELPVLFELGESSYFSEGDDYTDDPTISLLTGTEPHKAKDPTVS

Cytochrome P450 2D6 = Cytochrome P450 2D6 (Homo sapiens, UniProt P10635);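 further: CYP2D6 member of a cytochrome P450 panel assay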
Cytochrome P450 2D6, sequence (P10635 whole entry): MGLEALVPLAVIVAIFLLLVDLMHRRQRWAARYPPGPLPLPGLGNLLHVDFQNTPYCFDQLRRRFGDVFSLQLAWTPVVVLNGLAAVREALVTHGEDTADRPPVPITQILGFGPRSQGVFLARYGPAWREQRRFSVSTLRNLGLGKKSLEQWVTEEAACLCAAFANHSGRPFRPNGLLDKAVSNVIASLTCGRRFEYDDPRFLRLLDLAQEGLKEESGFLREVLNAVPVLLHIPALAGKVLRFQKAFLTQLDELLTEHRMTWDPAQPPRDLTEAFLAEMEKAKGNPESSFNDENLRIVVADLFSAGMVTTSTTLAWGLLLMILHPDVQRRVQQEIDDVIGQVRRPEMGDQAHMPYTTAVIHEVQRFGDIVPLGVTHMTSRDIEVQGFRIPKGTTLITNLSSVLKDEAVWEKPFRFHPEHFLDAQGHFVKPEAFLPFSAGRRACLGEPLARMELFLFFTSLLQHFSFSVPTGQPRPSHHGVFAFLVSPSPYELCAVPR

Compound | AC50 [2] | EC50 (Protein RecA) | CC50 [3] | other results
Cc1ccc(S(=O)(=O)Oc2ccc(C(c3c(C)n[nH]c3O)c3c(C)n[nH]c3O)cc2)cc1 | 7.06 µM (active) | 46.2 µM (active) | – | EC50 [1]: > 53 µM (inactive)
O=C(N/C=C/c1ccccc1)Nc1ccc(Cl)cc1 | – | – | 20.8 µM (active) | –
CCOc1ccc(S(=O)(=O)N2CCN(c3ccccc3)CC2)c2cccnc12 | – | – | 30.9 µM (active) | –
Oc1c(Br)cc(Br)cc1CNc1ccc(F)cc1 | – | – | – | EC50 (Streptokinase A): 84.4 µM (active); EC50 [4]: 20.4 µM (active); EC50 (Streptococcus): > 150 µM (not active)
O=[N+]([O-])c1cc(C(F)(F)F)ccc1SCC(O)CO (stereo not drawn) | – | – | > 50 µM (active) | –
c1ccc2c(CSCc3cccc4ccccc34)cccc2c1 | – | – | – | AC50 (Cytochrome P450 2C9): 3.16 µM (inconclusive)
CC(=O)Oc1ccc(N(C(C)=O)S(=O)(=O)c2ccc3ccccc3c2)cc1Br | 9.4 µM (active) | 17.3 µM (active) | – | –
COc1ccc(-c2[nH]nc3c2C(c2ccoc2)C(C#N)=C(N)O3)cc1 (stereo not drawn) | 1.39 µM (active) | 0.548 µM (active) | – | –
Cc1nc2ccc(S(=O)(=O)NC(CC(C)C)C(=O)O)cc2s1 (stereo not drawn) | – | – | – | AC50 (Cytochrome P450 2C9): 12.6 µM (inconclusive)
O=C1C=C/C(=N/c2cccc3c(/N=C4\C=CC(=O)O4)cccc23)O1 | – | – | – | AC50 (Cytochrome P450 2C9): 6.31 µM (inconclusive)
CCCc1n[nH]c2c1C(c1ccsc1)C(C#N)=C(N)O2 (stereo not drawn) | 16.5 µM (active) | 2.28 µM (active) | – | –
Cc1noc(C)c1COC(=O)CCN1c2ccccc2Sc2ccccc21 | – | – | 37.9 µM (active) | –
CC(C)(C)C(=O)Nc1cccc(-c2cc(-c3c(Cl)cccc3Cl)no2)c1 | – | – | 12.9 µM (active) | EC50 [5]: > 260 µM (inactive)
O=C(Nc1cnc(O)nc1O)c1cccc(F)c1 | – | – | 18.6 µM (active) | –
Cc1ccc(NC(=O)c2sc3ncnc(N4CCN(c5ccccn5)CC4)c3c2C)c(C)c1 | 15.7 µM (active) | > 380 µM (inactive) | – | –
Brc1ccc2c(c1)C(c1ccc(N3CCOCC3)cc1)=NNC(c1cccs1)=N2 | – | – | 32.1 µM (active) | –
COc1ccc(-c2oc3cccnc3c2C#CC2(O)CCCCC2)cc1 | – | – | – | EC50 (Streptokinase A): > 150 µM (not active); EC50 [4]: 7.18 µM (active); EC50 (Streptococcus): 11.1 µM (active)
O=C(Nc1nnc(SCc2ccccc2Cl)s1)C1COc2ccccc2O1 (stereo not drawn) | – | – | – | EC50 (Streptokinase A): 7.36 µM (active); EC50 [4]: 4.52 µM (active); EC50 (Streptococcus): 16.7 µM (active)
Cc1oc2cc(O)cc(C)c2c(=O)c1-c1cnn(-c2ccccc2)c1 | – | – | 15.6 µM (active) | –
COc1cc(Cn2nnc3ccccc32)cc(Br)c1O | – | – | 23.2 µM (active) | –
COc1ccc(N(C)C(=O)c2cc3c(s2)-c2c(C)cccc2OC3)c(OC)c1 | 74.5 µM (active) | 133 µM (inconclusive) | 19.6 µM (active) | –
COC(=O)c1[nH]c2ccc(Br)cc2c1NC(=O)CN1CCCc2ccccc21 | – | – | 41.9 µM (active) | –
O=C1/C(=C/c2ccc3c(c2)OCO3)CCC/C1=C\c1ccc2c(c1)OCO2 | > 380 µM (inactive) | > 380 µM (inactive) | – | –
CCCc1n[nH]c2c1C(c1cc(OC)cc(OC)c1)C(C#N)=C(N)O2 (stereo not drawn) | 1.27 µM (active) | 1.51 µM (active) | – | –
N#CC1=C(N)N(c2ccccc2)C(c2cccc([N+](=O)[O-])c2)C1(C#N)C#N (stereo not drawn) | 5.73 µM (active) | 12.8 µM (active) | – | –
O=C(c1ccc2nc(Cc3cccc(Cl)c3)oc2c1)N1CCC(O)CC1 | 357 µM (active) | > 380 µM (inactive) | – | –
Cc1[nH]n(-c2ccccc2)c(=O)c1C=C1C(=O)NC(=O)NC1=O | 16.8 µM (active) | 7.39 µM (active) | – | –
C/C(=N\Nc1cccc([N+](=O)[O-])c1)c1cc(F)ccc1O | – | – | > 50 µM (active) | –
O=C(Cc1ccccc1)N/N=C/c1ccccn1 | – | – | – | EC50 (Streptokinase A): > 150 µM (not active); EC50 [4]: > 150 µM (not active); EC50 (Streptococcus): > 150 µM (not active)
N[C@@H]1C[C@H]1c1ccccc1.N[C@H]1C[C@@H]1c1ccccc1 [TRANYLCYPROMINE] | – | – | – | AC50 (Cytochrome P450 2C9): 39.8 µM (inconclusive); AC50 (Cytochrome P450 2D6): 31.6 µM (inconclusive)
